Experiment [1] deals with sphingosine in the liver. In words: Sphingosine in the liver after SACLAC administration. The format is in vivo, Swiss Webster mice.
Experiment [2] concerns OCI-AML2 cells. As to the kind of experiment: Caspase 3/7 activation. The format is cell-based, human. The following applies: increasing doses; 24 hours. The protocol:
Apoptosis in cell lines was assessed after treating 2.5×10^5 cells per ml with drug or vehicle in a 48-well plate for the indicated time points and doses. Primary human AML cells were pre-incubated with SFEM for 48 hours before plating 2×10^5 cells in 24-well plates for the indicated times point and doses. Samples were stained using the Muse Annexin V & Dead Cell Kit (Millipore #MCH100105). Change in mitochondrial membrane potential in cell lines was measured with the Muse® MitoPotential Kit (#MCH100110, MilliporeSigma, Burlington, Mass., United States of America). Caspase activation was measured using the Muse® Caspase 3/7 Assay Kit (#MCH100108, MilliporeSigma, Burlington, Mass., United States of America). For rescue experiments, cells were plated at 2.5×10^4 well in a 96-well plate 24 hours after electroporation. Cells were treated with DMSO or […] for 48 hours and apoptosis was detected as stated above. All kits were used according to manufacturer's protocol. Cells were then analyzed using the Muse® Cell Analyzer (MilliporeSigma, Burlington, Massachusetts, United States of America) (35,36). Experiments included positive and negative controls for proper analysis.

Experiment [3] has as its system normal CD34+ cells. As to the kind of experiment: Cell viability of normal samples ([…]-GLO). The class given is cell-based. The note with it: Homo sapiens; CD34+ (n=4); 24 hours. The text has this:
(§1) Healthy donor samples: PBMCs from healthy donors were enriched using the Ficoll-Paque gradient separation method. CD34+PBMCs mobilized with G-CSF were obtained from the University of Virginia Health System Blood Bank (Charlottesville, Va., United States of America). CD34+ cells were isolated from PBMCs with a Human CD34 MicroBead Kit (#130-046, Miltenyi Biotec, Bergisch Gladbach, Germany) using the autoMACS Pro Separator (#130-092-545, Miltenyi Biotec, Bergisch Gladbach, Germany). For cell viability, cell lines were plated at 2.5×10^4 cells per well in a 96-well plate and treated with […] or DMSO vehicle (0.4% of total volume) for the indicated time points and doses. […] Conversion of MTS to formazan product was measured by absorbance at 490 nm using a BioTek Cytation 3 plate reader (BioTeck, Winooski, Vt., United States of America). Absorbance was normalized to DMSO control, which was defined as 100% viability. […] After 15 minutes, luminescence was read on a BioTek Cytation 3 plate reader (BioTek, Winooski, Vt., United States of America). Absorbance was normalized to DMSO control, which was defined as 100% viability.

The test system of experiment [4] is PBMCs from healthy donors. In words: Cell viability of normal samples ([…]-GLO). The class given is cell-based. The note with it: Homo sapiens, PBMC; PBMCs (n=6); 24 hours.
Excerpt: as §1

The test system of experiment [5] is HL-60/VCR. As to the kind of experiment: Cell viability MTS assay. The class given is cell-based. The following applies: Homo sapiens, HL60/VCR; 24-hour treatment. As for the experimental part: (§2) For cell viability, cell lines were plated at 2.5×10^4 cells per well in a 96-well plate and treated with […] or DMSO vehicle (0.4% of total volume) for the indicated time points and doses. At the experiment end point, 3-(4,5-Dimethylthiazol-2-yl)-5-(3-carboxymethoxyphenyl)-2-(4-sulfophenyl)-2H-tetrazolium (MTS) Cell Proliferation Colorimetric Assay Kit (# K300-5000, BioVision, Inc., Milpitas, Calif., United States of America) reagent was added and incubated for 2 hours. Conversion of MTS to formazan product was measured by absorbance at 490 nm using a BioTek Cytation 3 plate reader (BioTeck, Winooski, Vt., United States of America). Absorbance was normalized to DMSO control, which was defined as 100% viability. Due to limited cell numbers, patient samples and normal samples were plated at 5×10^3 cells per well in a 384-well plate with […] or DMSO control for the indicated time points and doses. At the experiment end point, a luminescent reagent sold under the tradename [sequence]-GLOTM (#G7572, Promega Corporation, Madison, Wis., United States of America) was added. After 15 minutes, luminescence was read on a BioTek Cytation 3 plate reader (BioTek, Winooski, Vt., United States of America). Absorbance was normalized to DMSO control, which was defined as 100% viability.
For orientation: Tetrazolium dyes change colour on reduction, which living cells bring about.

The subject of experiment [6] is THP-1. In words: Cell viability MTS assay. The format is cell-based. The following applies: Homo sapiens, 24-hour treatment. As for the experimental part: as §2
The test system of experiment [7] is OCI-AML2. In words: Cell viability MTS assay. The following applies: Homo sapiens, 24-hour treatment. The class given is cell-based. As for the experimental part: as §2
Experiment [8] has as its system human AML cell lines. As to the kind of experiment: Sphingolipid analysis by LC-ESI-MS/MS (S1P, total ceramide). The class given is cell-based. The following applies: 2.5 μM, 24 hours. The protocol: Lipid extraction and analysis was done using liquid chromatography-electrospray ionization-tandem mass spectrometry (LC-ESI-MS/MS) as previously described (22). Cells were plated at 5 million cells per 6 ml and treated with SACLAC or DMSO for 24 hours. Lipids were extracted from cell pellets using an azeotrophic mix of isopropanol: water: ethyl acetate (3:1:6; v:v:v). Internal standards (50 pmol of d17 long-chain bases and C12 acylated sphingolipids) were added to samples at the onset of the extraction procedure. Extracts were separated on a Waters I-class Acquity UPLC chromatography system (Waters Corporation, Milford, Mass., United States of America). Mobile phases were (A) 60:40 water: acetonitrile and (B) 90:10 isopropanol:methanol with both mobile phases containing 5 mM ammonium formate and 0.1% formic acid. A Waters C18 CSH 2.1 mm ID×10 cm column maintained at 65° C. was used for the separation of the sphingoid bases, 1-phosphates, and acylated sphingolipids. The eluate was analyzed with an inline Waters TQ-S mass spectrometer (Waters Corporation, Milford, Mass., United States of America) using multiple reaction monitoring. All data reported are based on monoisotopic mass and are represented as pmol/mg protein.

Molecules are shown by their SMILES. pEC50: −log10 of the molar value. Several values for one entry are separate records, joined by “and”; a condition that tells them apart may be missing. Identical values can stand only once.

Results on one compound are retold here after US20220387358A1, “CERAMIDE ANALOG SACLAC MODULATES SPHINGOLIPID LEVELS AND MCL-1 SPLICING TO INDUCE APOPTOSIS IN ACUTE MYELOID LEUKEMIA” (University of Virginia Patent Foundation, priority 2019, published 2022).

The term pEC50 denotes the EC50 on a negative log10 scale, so that one unit is a factor of ten. Turning to `CCCCCCCCCCCCCCC[C@@H](O)[C@H](CO)NC(=O)CCl` [SACLAC, N-[(2S,3R)-1,3-dihydroxyoctadecan-2-yl]2-chloroacetamide], in experiment [1], the “time that liver sphingosine levels were reduced after treatment” value is given as “at least 6 hours”. Further, in experiment [2], the “caspase 3/7 activation” value is recorded as “dose-dependent caspase activation”. Further, the pEC50 in experiment [3] was 5.40; in experiment [4] it was 5.13; in experiment [5], 5.48; in experiment [6], 5.59; in experiment [7] it was 5.74. Also, the “increase in total ceramide” value in experiment [8] (HL-60/VCR, THP-1, OCI-AML2) is 2.5 fold and 2- to 3 fold. For the same compound, the “S1P content reduced by” value in experiment [8] (HL-60/VCR) was determined as 87%. For the same compound, the S1P levels entry in experiment [8] (OCI-AML2) and in experiment [8] (THP-1) was “below the limit of detection” throughout.
